Experimental data reported in patent US9765058B2, “Substituted benzylpyrazoles” (BAYER PHARMA AKTIENGESELLSCHAFT, priority 2013, dated 2017).
Read-outs that look alike come from different tables or passages of the source.

Columns and labels:
[1] = system: HeLa cell line; assay: Proliferation assay (crystal violet); conditions: Homo sapiens, 96 h, read-out: Biological Assay 2: Proliferation assay (HeLa cell line) median IC50
Procedure: Cultivated tumor cells (cells were ordered from ATCC, except HeLa-MaTu and HeLa-MaTu-ADR, which were ordered from EPO-GmbH, Berlin) were plated at a density of 1000 to 5000 cells/well, depending on the growth rate of the respective cell line, in a 96-well multititer plate in 200 μL of their respective growth medium supplemented 10% fetal calf serum. After 24 hours, the cells of one plate (zero-point plate) were stained with crystal violet (see below), while the medium of the other plates was replaced by fresh culture medium (200 μL), to which the test substances were added in various concentrations (0 μM, as well as in the range of 0.001-10 μM; the final concentration of the solvent dimethyl sulfoxide was 0.5%). The cells were incubated for 4 days in the presence of test substances. Cell proliferation was determined by staining the cells with crystal violet: the cells were fixed by adding 20 μL/measuring point of an 11% glutaric aldehyde solution for 15 minutes at room temperature. After three washing cycles of the fixed cells with water, the plates were dried at room temperature. The cells were stained by adding 100 μL/measuring point of a 0.1% crystal violet solution (pH 3.0). After three washing cycles of the stained cells with water, the plates were dried at room temperature. The dye was dissolved by adding 100 μl/measuring point of a 10% acetic acid solution. Absorbtion was determined by photometry at a wavelength of 595 nm. The change of cell number, in percent, was calculated by normalization of the measured values to the absorbtion values of the zero-point plate (=0%) and the absorbtion of the untreated (0 μm) cells (=100%). The IC50 values were determined by means of a 4 parameter fit.

[2] = target: catalytic domain of human Bub1 (amino acids 704-1085) (Homo sapiens (Human), UniProt O43683); assay: Bub1 kinase assay (TR-FRET); type: biochemical; conditions: read-out: Biological Assay 1: Bub1 kinase assay median IC50
Procedure: The stopped reaction mixture was further incubated 1 h at 22° C. in order to allow the formation of complexes between peptides and detection reagents. Subsequently, the amount of product was evaluated by measurement of the resonance energy transfer from the Eu-chelate-antibody complex recognizing the Phosphoserine residue to the streptavidin-XL665 bound to the biotin moiety of the peptide. […] IC50 values were calculated by fitting the normalized inhibition data to a 4-parameter logistic equation (Minimum, Maximum, IC50, Hill; Y=Max+(Min−Max)/(1+(X/IC50)Hill)).

[3] = TR-FRET, 10 μM ATP, 1 μM peptide substrate

Row | Structure (SMILES) | IC50 [1] | IC50 [2, 3] | IC50 [2]
1 | CCOc1cc(F)c(Cn2nc(-c3ncc(OC)c(Nc4ccncc4C(=O)NC)n3)c(F)c2C)c(F)c1 [Example 2-4-4, 4-({2-[1-(4-ethoxy-2,6-difluorobenzyl)-4-fluoro-5-methyl-1H-pyrazol-3-yl]-5-methoxypyrimidin-4-yl}amino)-N-methylnicotinamide] | > 10000 nM | 10 nM | –
2 | CCOc1cc(F)c(Cn2nc(-c3nccc(Nc4ccncc4C(=O)NC)n3)c(Cl)c2C2CC2)c(F)c1 [Example 2-1-1, 4-({2-[4-chloro-5-cyclopropyl-1-(4-ethoxy-2,6-difluorobenzyl)-1H-pyrazol-3-yl]pyrimidin-4-yl}amino)-N-methylnicotinamide] | > 10000 nM | 4.7 nM | –
3 | CCOc1cc(F)c(Cn2nc(-c3nccc(Nc4ccncc4C(=O)NCCO)n3)c(Cl)c2C2CC2)c(F)c1 [Example 2-4-1, 4-({2-[4-chloro-5-cyclopropyl-1-(4-ethoxy-2,6-difluorobenzyl)-1H-pyrazol-3-yl]pyrimidin-4-yl}amino)-N-(2-hydroxyethyl)nicotinamide] | > 10000 nM | – | 54 nM
4 | CCOc1cc(F)c(Cn2nc(-c3nccc(Nc4ccncc4C(N)=O)n3)c(Cl)c2C2CC2)c(F)c1 [Example 2-1-2, 4-({2-[4-chloro-5-cyclopropyl-1-(4-ethoxy-2,6-difluorobenzyl)-1H-pyrazol-3-yl]pyrimidin-4-yl}amino)nicotinamide] | 8600 nM | 8.1 nM | –
5 | CCOc1cc(F)c(Cn2nc(-c3nccc(Nc4ccncc4C(=O)O)n3)c(Cl)c2C2CC2)c(F)c1 [Example 2-3-1, 4-({2-[4-chloro-5-cyclopropyl-1-(4-ethoxy-2,6-difluorobenzyl)-1H-pyrazol-3-yl]pyrimidin-4-yl}amino)nicotinic acid] | – | – | 11 nM
6 | CCOc1cc(F)c(Cn2cc(Cl)c(-c3ncc(OC)c(Nc4ccncc4)n3)n2)c(F)c1 [Example 2-2-5, 2-[4-chloro-1-(4-ethoxy-2,6-difluorobenzyl)-1H-pyrazol-3-yl]-5-methoxy-N-(pyridin-4-yl)pyrimidin-4-amine] | 6800 nM | 33 nM | –
7 | CCOc1cc(F)c(Cn2cc(N(C)C)c(-c3ncc(OC)c(Nc4ccncc4)n3)n2)c(F)c1 [Example 2-2-10, 2-[4-(dimethylamino)-1-(4-ethoxy-2,6-difluorobenzyl)-1H-pyrazol-3-yl]-5-methoxy-N-(pyridin-4-yl)pyrimidin-4-amine] | > 10000 nM | 250 nM | –
8 | CCOc1cc(F)c(Cn2nc(-c3ncc(OC)c(Nc4ccncc4)n3)c(Cl)c2C)c(F)c1 [Example 2-2-3, 2-[4-chloro-1-(4-ethoxy-2,6-difluorobenzyl)-5-methyl-1H-pyrazol-3-yl]-5-methoxy-N-(pyridin-4-yl)pyrimidin-4-amine] | 3800 nM | 10 nM | –
9 | CCOc1cc(F)c(Cn2nc(-c3nccc(Nc4ccncc4)n3)c(Cl)c2C2CC2)c(F)c1 [Example 2-2-1, 2-[4-chloro-5-cyclopropyl-1-(4-ethoxy-2,6-difluorobenzyl)-1H-pyrazol-3-yl]-N-(pyridin-4-yl)pyrimidin-4-amine] | 8800 nM | – | 5.6 nM
10 | CCOc1cc(F)c(Cn2cc(Cl)c(-c3ncc(OC)c(Nc4ccncc4C(=O)NC)n3)n2)c(F)c1 [Example 2-4-2, 4-({2-[4-chloro-1-(4-ethoxy-2,6-difluorobenzyl)-1H-pyrazol-3-yl]-5-methoxypyrimidin-4-yl}amino)-N-methylnicotinamide] | > 10000 nM | 13 nM | –
11 | CCOc1cc(F)c(Cn2nc(-c3ncc(OC)c(Nc4ccncc4)n3)c(C)c2C#N)c(F)c1 [Example 2-2-12, 1-(4-ethoxy-2,6-difluorobenzyl)-3-[5-methoxy-4-(pyridin-4-ylamino)pyrimidin-2-yl]-4-methyl-1H-pyrazole-5-carbonitrile] | > 10000 nM | 100 nM | –
12 | CCOc1cc(F)c(Cn2nc(-c3ncc(OC)c(Nc4ccncc4)n3)c(C)c2Br)c(F)c1 [Example 2-2-11, 2-[5-bromo-1-(4-ethoxy-2,6-difluorobenzyl)-4-methyl-1H-pyrazol-3-yl]-5-methoxy-N-(pyridin-4-yl)pyrimidin-4-amine] | 1300 nM | 13 nM | –
13 | CCOC(=O)c1cnccc1Nc1nc(-c2nn(Cc3c(F)cc(OCC)cc3F)c(C)c2F)ncc1OC [Example 2-2-9, ethyl 4-({2-[1-(4-ethoxy-2,6-difluorobenzyl)-4-fluoro-5-methyl-1H-pyrazol-3-yl]-5-methoxypyrimidin-4-yl}amino)nicotinate] | – | 40 nM | –
14 | CCOc1cc(F)c(Cn2nc(-c3ncc(OC)c(Nc4ccncc4)n3)c(F)c2C)c(F)c1 [Example 2-2-6, 2-[1-(4-ethoxy-2,6-difluorobenzyl)-4-fluoro-5-methyl-1H-pyrazol-3-yl]-5-methoxy-N-(pyridin-4-yl)pyrimidin-4-amine] | 4500 nM | 41 nM | –
15 | CCOC(=O)c1cnccc1Nc1ccnc(-c2nn(Cc3c(F)cc(OCC)cc3F)c(C3CC3)c2Cl)n1 [Example 2-2-2, ethyl 4-({2-[4-chloro-5-cyclopropyl-1-(4-ethoxy-2,6-difluorobenzyl)-1H-pyrazol-3-yl]pyrimidin-4-yl}amino)nicotinate] | 9200 nM | 37 nM | –
16 | CCOc1cc(F)c(Cn2nc(-c3ncc(OC)c(Nc4ccncc4)n3)c(Br)c2C)c(F)c1 [Example 2-2-4, 2-[4-bromo-1-(4-ethoxy-2,6-difluorobenzyl)-5-methyl-1H-pyrazol-3-yl]-5-methoxy-N-(pyridin-4-yl)pyrimidin-4-amine] | 3300 nM | 24 nM | –
17 | CCOc1cc(F)c(Cn2cc(Cl)c(-c3ncc(OC)c(Nc4ccncc4C(N)=O)n3)n2)c(F)c1 [Example 2-4-3, 4-({2-[4-chloro-1-(4-ethoxy-2,6-difluorobenzyl)-1H-pyrazol-3-yl]-5-methoxypyrimidin-4-yl}amino)nicotinamide] | > 10000 nM | 7.4 nM | –
18 | CCOc1cc(F)c(Cn2nc(-c3ncc(OC)c(Nc4ccncc4)n3)c(C#N)c2C)c(F)c1 [Example 2-2-8, 1-(4-ethoxy-2,6-difluorobenzyl)-3-[5-methoxy-4-(pyridin-4-ylamino)pyrimidin-2-yl]-5-methyl-1H-pyrazole-4-carbonitrile] | – | 3200 nM | –
19 | CCOc1cc(F)c(Cn2nc(-c3ncc(OC)c(Nc4ccncc4C(N)=O)n3)c(F)c2C)c(F)c1 [Example 2-4-5, 4-({2-[1-(4-ethoxy-2,6-difluorobenzyl)-4-fluoro-5-methyl-1H-pyrazol-3-yl]-5-methoxypyrimidin-4-yl}amino)pyridine-3-carboxamide] | > 10000 nM | 11 nM | –
